Test results published in a melting point compilation (Tetko et al.; mined from patent text by program, amines drawn as free bases though some values may be those of a salt).

With `O=c1c2ccccc2[nH]c2c1cnn2-c1ccccn1` the melting point was 240 to 242 °C.
For `CCN(CC)C(=O)c1cc(-c2ccccc2)c2ccccc2c1OC`, the melting point was 102 to 103 °C.
`COc1cc2c(cc1OC)C(=O)CCCS2` gave a melting point of 128 to 129 °C.
Work on `COCOc1ccc2cc(C=O)ccc2c1` yielded a melting point of 52 to 54 °C.
In the case of `CCCCCCC1OC(=O)c2cc(NC(C)=O)ccc21` (configuration not stated), the melting point is reported as 135 to 137 °C.
In the case of `C#CCN(c1ccc(C(=O)OC(C)(C)C)cc1)C1CCc2cc3nc(C)[nH]c(=O)c3cc21` (racemic), the melting point is reported as 244 to 246 °C.
For `O=C(NCc1ccccc1)c1ccnc(-n2ccc(OCc3ccccc3)cc2=O)c1`, the melting point was 158 to 161 °C.
Compound `CSc1ccc2ccc(N3C(=O)c4ccccc4C3O)nc2n1` (configuration not stated) has a melting point of 210 °C.
`CSc1nc(C)cc2nccn12` showed a melting point of 67 to 69 °C.
`O=C1Nc2cccnc2Oc2ccccc21` showed a melting point of 268 to 270 °C.
`COc1cc(C2=CCN(S(=O)(=O)CC(=O)NO)CC2)ccc1-c1ccccc1` showed a melting point of 175 to 177 °C.
For `O=C(NC1CCc2ccc([N+](=O)[O-])cc2C1)c1ccccc1` (configuration not stated), the melting point was 194 to 198 °C.
`CC(=O)Nc1cc2c(cc1Br)C(Nc1ccc(C(=O)OC(C)(C)C)c(F)c1)CC2` (configuration not stated) showed a melting point greater than 70 °C.
For `CC(C)(CN)Nc1ncc2ncnc(Nc3ccc(F)c(Cl)c3)c2n1`, the melting point was 196 to 201 °C.
Compound `CCOC(=O)CNc1cc(Cl)nc(NCc2ccc(Cl)cc2)n1` has a melting point of 168 to 170 °C.
In the case of `CC(C)CC(NC(=O)C(NC(=O)OCc1ccccc1)C(C(=O)O)C(C)(C)C)C(=O)NC(CCCCNC(=O)OC(C)(C)C)C(=O)O` (configuration not stated), the melting point is reported as 173 to 174 °C.
For `Cc1nc(S(=O)(=O)N(C(=O)c2ccccc2)c2c(F)cccc2F)nn1-c1ncccn1`, the melting point was 218 to 221 °C.
Work on `CSc1ncc(Sc2nc(C)c(CC(=O)O)s2)c(C(=O)O)n1` yielded a melting point of 238 to 239 °C.
Work on `CCOC(c1ccc(Cl)c2nc3n(c12)CCCN3c1ccc(OC)nc1C)C(F)(F)F` (configuration not stated) yielded a melting point of 168 to 170 °C.
For `CCC(=O)c1cnccn1`, the melting point was 46 to 47 °C.
Compound `COC(=O)c1ccc(O)c(C(=O)CC(=O)c2ccccc2OCc2ccccc2)c1` has a melting point of 95 to 97 °C.
In the case of `CN(CSC(C)(C)CC(C)(C)C)C(=O)Nc1cccc(C(F)(F)F)c1`, the melting point is reported as 52 to 54 °C.
In the case of `C=CC(=O)C1C(=O)N(c2ccc(OC)cc2)C1c1ccccc1Cl` (configuration not stated), the melting point is reported as 99 to 100 °C.
With `C#CCNC(=O)c1ncn2c1CN(C)C(=O)c1c-2ccc(F)c1Cl` the melting point was 235 to 237 °C.
Compound `CC(C)(CCCCOCCCCc1ccc(N2CCOCC2)cc1)NCC(O)c1ccc(O)c(NS(C)(=O)=O)c1` (configuration not stated) has a melting point of 165 to 167 °C.
`O=C(O)C1CCc2nc3cc(Cl)ccc3c(Cl)c2C1` (configuration not stated) gave a melting point greater than 250 °C.
For `Nc1cc(NC(=O)c2ccc(Cl)c(Cl)c2)ccc1F`, the melting point was 151 to 153 °C.
Compound `Cc1nnc2n1-c1sc(CC(=O)N3CCCCC3)cc1C(c1ccccc1Cl)=NC2C` (configuration not stated) has a melting point of 182 to 183 °C.
`COc1cc(C2(C)C(=O)Nc3ccccc3C2=O)ccc1O` (configuration not stated) showed a melting point of 168 to 169 °C.
With `O=C(O)c1c(-c2ccccc2)c(-c2ccccc2)nn1-c1ccccc1` the melting point was 190 °C.
Work on `CON=C(c1nnn[nH]1)c1ccccc1COc1cc(C)ccc1C` yielded a melting point of 168 to 170 °C.
`Cc1cc(C)n(-c2ncc(Br)c(Nc3ccc(Cl)cc3)n2)n1` gave a melting point of 144 to 154 °C.
For `COC(=O)C(=C(C)O)N1C(=O)C(N2C(=O)c3ccccc3C2=O)C1SC(C)=O` (configuration not stated), the melting point was 178 to 183 °C.
In the case of `Nc1nc2c(ncn2OC(CO)COCP(=O)(O)O)c(=O)[nH]1` (configuration not stated), the melting point is reported as greater than 300 °C.
Compound `COc1cccc(CO)c1CO` has a melting point of 95 °C.
`CCOC(=O)c1cc(NC(=O)C(CS)Cc2ccc(Cl)cc2)c[nH]1` (configuration not stated) showed a melting point of 140 to 143 °C.
`COc1ccc(S(N)(=O)=O)cc1C(=O)NCc1ccc(OCCN(C)C)cc1` gave a melting point of 122 to 123 °C.
`CCOC(=O)C(C(=O)OCC)N1CS(=O)c2c(C)cc([N+](=O)[O-])cc21` (configuration not stated) gave a melting point of 97 °C.
Work on `Cc1cnc2ccc(-c3cccnc3)nn12` yielded a melting point of 173 to 175 °C.
With `N#Cc1cnc2sc(C(=O)O)cc2c1Nc1ccc2[nH]ccc2c1` the melting point was greater than 250 °C.
In the case of `CC(C)(C)OC(=O)N1CCc2c(n(CCOc3ccccc3)c3ccc(Cl)c(Cl)c23)CC1`, the melting point is reported as 175 to 176 °C.
`COC(=O)Nc1ccccc1CS(=O)c1ncc(C(F)(F)F)cc1Cl` (configuration not stated) showed a melting point of 160 to 162 °C.
`CC1(COc2ccc([N+](=O)[O-])cc2)CC(=O)c2cc(C(=O)O)ccc2O1` (configuration not stated) gave a melting point of 227 to 235 °C.
`COc1ccc(CSc2ccc3c(c2)C=CC(C)(C)O3)cc1` gave a melting point of 58 to 59 °C.
`Nc1nc(NCCc2ccc(Cl)cc2)sc1C(=O)c1ccccc1[N+](=O)[O-]` gave a melting point of 117 to 120 °C.
With `Nc1ccc2c(c1)NC(=O)C2` the melting point was 194 °C.
With `OCc1cn(C(c2ccccc2)(c2ccccc2)c2ccccc2)cn1` the melting point was 224 to 227 °C.
In the case of `COc1c(Br)cc(-c2c3ccccc3cc3sc4ccccc4c23)cc1Br`, the melting point is reported as 238 to 240 °C.
Work on `Cc1cc(-c2nc3cccnn3c2-c2ccnc(NC(=O)C3CC3)c2)ccc1F` yielded a melting point of 217 to 218 °C.
With `COc1cc(OC)cc(C(=O)N2CCc3cc(O)ccc3C2)c1` the melting point was 170 to 171 °C.
With `CCOc1c(N2CCC(Oc3ccc(CC(=O)N4CCN(c5ccccc5C)CC4C(N)=O)c(OC)c3)CC2)c(=O)c1=O` (configuration not stated) the melting point was 155 to 157 °C.
Compound `CCCCCCCCCCCN=C1SC(=CC(=O)O)C(=O)N1CCCCCCCCCCC` has a melting point of 67 to 68 °C.
With `CC(C)(C)OC(=O)NCc1cccc(CC(=O)O)c1` the melting point was 95 to 96.5 °C.
With `Nc1ncnc2c1ncn2C1OC(C(O)C(=O)OCc2ccccc2)C(O)C1O` (configuration not stated) the melting point was 144 to 145 °C.
`Cc1ccc([N+](=O)[O-])c(C)c1C(=O)c1c[nH]cn1` showed a melting point of 245 to 249 °C.
For `CCNC(=NNc1c(Cl)cc(C(F)(F)F)cc1Cl)C1(C)CC1(Cl)Cl` (configuration not stated), the melting point was 79 °C.
Work on `COC(=O)c1ccc(CCNCC(O)c2cc3ccccc3o2)cc1` (configuration not stated) yielded a melting point of 117 to 119 °C.
Work on `COC[C@H]1CN(c2ccc3oc(-c4ccccc4)cc3c2)C(=O)O1` yielded a melting point of 178 to 179 °C.
Work on `O=C1CCC(c2ccc(CCCN3CCN(c4ccccc4)CC3)cc2)N1` (configuration not stated) yielded a melting point of 130 °C.
For `Cc1ccc(S(=O)C2CC3C(=O)C(c4ccc(F)cc4)=CC2N3C)cc1` (mixture of isomers), the melting point was 186 °C.
For `N#CC(=NNc1ccc(C(F)(F)F)cc1)C(=O)NCc1ccc(Cl)nc1`, the melting point was 204 to 205 °C.
`O=C(Nc1ccc[nH]c1=O)c1ccccc1F` showed a melting point of 223 °C.
For `COc1ccc2c(c1)nc(O)c1nncn12`, the melting point was greater than 250 °C.
Work on `O=C(NC(=O)c1c(F)cccc1F)Nc1cncc(C(F)(F)F)c1` yielded a melting point of 233 to 235 °C.
`Cc1ccccc1-c1nc2c3ccccc3ccn2c1N` gave a melting point of 151 to 153 °C.
Compound `CCOC(=O)c1c(C)n(C(C)=O)c(=O)n1C(C)=O` has a melting point of 56 to 58 °C.
`O=C1CCC(N2C(=O)c3cccc(NC(=O)Cc4ccccc4)c3C2=O)C(=O)N1` (configuration not stated) showed a melting point of 217 to 218 °C.
`COC=C(C(=O)OC)C1(c2ccc(OC)cc2)CC=C2C=CC=C2O1` (configuration not stated) showed a melting point of 124 °C.
`CNC(=O)Oc1ccc2c(c1)c1c(n2C)CC(CO)C1` (configuration not stated) showed a melting point of 137 to 138 °C.
In the case of `CCNC(=O)c1ccc(CCN2CC=C(c3c[nH]c(-c4ccc(F)cc4)c3-c3ccncc3)CC2)cc1`, the melting point is reported as 228 to 230 °C.
In the case of `OCc1cn2c(n1)CN=C(c1ccccc1)c1cc(Cl)ccc1-2`, the melting point is reported as 203 to 204 °C.
Compound `Cc1c(C=O)c2cnnc(OCc3ccc(F)cc3)c2n1C[C@H]1C[C@@H]1C` has a melting point of 138 to 140 °C.
`Nc1ccc([C@@H](O)CNC[C@H]2CCc3cc(NS(=O)(=O)c4ccc(-n5nnn(CCCC6CCCCC6)c5=O)cc4)ccc3O2)cn1` showed a melting point of 94 to 95 °C.
`CCCCCCOc1ccc(NC(=O)c2cnc(C(=O)OC)c(OC)c2)cc1` showed a melting point of 118 to 119 °C.
`CCC1(C)NC(=O)C(CCSC)O1` (configuration not stated) showed a melting point of 62 °C.
`CC(C)[C@@H](C(=O)N1C(=O)O[C@@H](c2ccccc2)[C@H]1C)[C@@H](O)[C@@H]1OC(C)(C)N(C(=O)OC(C)(C)C)[C@H]1CC1CCCCC1` showed a melting point of 97 °C.
In the case of `OCCNC(=S)Nc1cccc2ccoc12`, the melting point is reported as 138 to 139 °C.
Work on `Cc1oc(-c2ccco2)nc1COc1ccc(COc2nn(Cc3ccccc3)cc2CO)cc1Cl` yielded a melting point of 119 to 120 °C.
`Cc1sc(C)c(Cc2nc3c(F)c(F)cc(F)c3s2)c1CC#N` gave a melting point of 145 to 146 °C.
`Cc1n[nH]c(=O)n1-c1ccc([N+](=O)[O-])cc1` gave a melting point of 226 °C.
In the case of `N#Cc1c(OCC(F)(F)F)nc(CO)nc1N1CCc2ccccc2CC1`, the melting point is reported as 106 to 110 °C.
With `O=C(c1cccs1)c1cnn2c(-c3cccc(NCCc4ccccc4)c3)ccnc12` the melting point was 118 to 120 °C.
Compound `Cc1nc2cc(C)c(CN(C)c3ccc(C(=O)NC(CO)c4cccc([N+](=O)[O-])c4)cc3)cc2c(=O)[nH]1` (configuration not stated) has a melting point of 231 to 240 °C.
Compound `CC(=O)Nc1ccc(C(=O)Nc2ccc(C(=O)N3CCCCc4ccccc43)cc2)c(Cl)c1` has a melting point of 214 to 243 °C.
For `COC(=O)C1=C(CCc2ccccc2)NC(CC(=O)NCCO)=C(C(=O)OC)C1c1c(Cl)cccc1Cl` (configuration not stated), the melting point was 192 to 194 °C.
In the case of `CC(C)(C)OC(=O)NCCCCNc1c([N+](=O)[O-])cnc2cccnc12`, the melting point is reported as 137 to 138 °C.
Work on `Cc1ccc(S(=O)(=O)NCC(CC(=O)Nc2ccc(C(=O)O)cc2)c2ccc(Cl)cc2)cc1` (configuration not stated) yielded a melting point of 250 to 252 °C.
Work on `O=C(Nc1ccc(CCCc2nnn[nH]2)cc1)C(F)(F)C(F)(F)C(F)(F)F` yielded a melting point of 144 to 145 °C.
Compound `O=c1c(Cl)c(Cl)cnn1COCc1ccccc1` has a melting point of 60 to 64 °C.
`CNC(=O)c1cc(NC(=O)c2ccc(C)c(Nc3nccc(-c4cccnc4)n3)c2)cc(N2CCOCC2)c1` showed a melting point of 153 to 156 °C.
With `O=C(Cn1c(-c2ccc(C(F)(F)F)cc2)nc2cccnc21)NCc1ccccc1` the melting point was 224 to 225 °C.
With `O[C@H](COc1cccc2cc(-c3nnc(-c4ccccc4)o3)oc12)CN1CCC(c2ccc3ccccc3c2)CC1` the melting point was 78 to 80 °C.
In the case of `N#Cc1c(CNC(=O)c2ccc(OC(F)(F)F)cc2)nn(-c2ccc(Cl)cc2Cl)c1-c1ccc(Cl)cc1`, the melting point is reported as 180 °C.
For `CC(C)OC(=O)N1CCC(c2nc3cc(-c4ccc(S(C)(=O)=O)cc4F)ccc3o2)CC1`, the melting point was 96.5 to 101 °C.
Compound `CNC(=O)NS(=O)(=O)c1cc2c(cc1OC)OCCC2CNC(=O)c1cc(F)ccc1OC` (configuration not stated) has a melting point of 193 to 194 °C.
Work on `CC(C)N1CC(COc2ccc([N+](=O)[O-])c(C=O)c2)OC1=O` (configuration not stated) yielded a melting point of 94 to 97 °C.
For `N#Cc1cc(-c2ccnc(Nc3cccc(Cl)c3)n2)ccn1`, the melting point was 221 to 222 °C.
